Experimental data as given in PubChem BioAssay AID1996.
≈ marks a conversion by molar mass, not a printed value.

Conditions: buffer; pH 7.4; 200.0 µM

SMILES | solubility kinetic [µg/mL]
Cc1ccc(NC(=O)c2ccc3c(c2)OCO3)cc1Cl | 0.9 (≈ 3.11 µM)
Cc1ccc(NC(=O)CCN2C(=O)c3ccccc3C2=O)cc1C | 4.6 (≈ 14.3 µM)
Cc1cnc(C(=O)OCc2c(C)cc(C(C)(C)C)cc2C)cn1 | 9 (≈ 28.8 µM)
C=CCN1CN(CCc2ccccc2)CNC1=S | > 39.2
COC(=O)C(C)N=Cc1ccccc1 (centres undefined) | 21 (≈ 110 µM)
COc1ccc(S(=O)(=O)Nc2cc(Sc3ncn[nH]3)c(O)cc2C)cc1 | > 58.9
COc1ccc(Nc2ccc(C(F)(F)F)cc2[N+](=O)[O-])cn1 | 1.8 (≈ 5.75 µM)
COc1ccc(/C=C2\SC(=N)N(c3ccc(F)cc3)C2=O)cc1 | < 0.4
S=c1[nH]cnc2scc(-c3ccc(Cl)cc3)c12 | 0.5 (≈ 1.79 µM)
S=C(Nc1ccc2c(c1)OCCO2)Nc1ccccc1Cl | > 48.1
CCOC(=O)c1sc(-c2ccc(C(F)(F)F)cc2)nc1O | > 47.6
CN(C)C(CNC(=O)c1coc2ccccc2c1=O)c1ccccc1 (centres undefined) | > 50.5
Cc1cc(C)cc(OCC(=O)Nc2cc(C)on2)c1 | 1.5 (≈ 5.76 µM)
Cc1cccc(NC(=O)CCS(=O)(=O)c2ccc(Cl)cc2)c1 | 5.5 (≈ 16.3 µM)
CCOc1ccc(N(C)Cc2cc(=O)oc3ccc(OCC)cc23)cc1 | 2.3 (≈ 6.51 µM)
CNS(=O)(=O)c1cccc(C(=O)OCC(=O)Nc2ccc3ccccc3c2)c1 | 2.8 (≈ 7.03 µM)
O=C(CCl)Nc1c[nH]c(=O)[nH]c1=O | > 30.5
CC1(C)c2ccccc2N(CC(N)=O)C12C=Cc1ccccc1O2 (centres undefined) | 12.6 (≈ 39.3 µM)
CC1(C)SC(=S)N(c2ccccc2)C1/[N+]([O-])=C/c1cccc([N+](=O)[O-])c1 (centres undefined) | 6.2 (≈ 16 µM)
O=C(Nc1ccc(Br)cn1)c1cccc2ccccc12 | 0.5 (≈ 1.53 µM)
CCOC(=O)c1csc(NC(=O)c2cccs2)n1 | 28.9 (≈ 102 µM)
COc1ccc(S(=O)(=O)Nc2cc3[nH]c(=O)oc3cc2C)cc1 | > 50.2
COc1ccc(C(=O)c2sc(Nc3ccccc3)nc2N)cc1 | 2.2 (≈ 6.76 µM)
Cc1cc(O)cc(=O)n1CCc1ccccc1 | > 34.4

SMILES | solubility kinetic [µg/mL]
Cc1nnc(SC(C)C(=O)NC2CCCCC2)s1 (centres undefined) | > 42.8
Cc1ccc2c(c1C)NC(=O)CC(c1ccccc1O)=N2 | 0.6 (≈ 2.14 µM)
Cc1ccc(C(=O)Nc2nccs2)cc1 | 16.5 (≈ 75.6 µM)
CC(=O)c1c(C)[n+]([O-])c2ccc3c(non3O)c12 | 25.5 (≈ 103 µM)
O=C(Nc1ccccc1C(=O)NC1CC1)c1ccccc1F | 44.6 (≈ 150 µM)
Cc1cc(-c2ccccc2)oc(=O)c1NC(=O)c1ccccc1 | < 0.7
N#Cc1c(N)n(-c2ccc(C(=O)O)cc2)c2nc3ccccc3nc12 | 28.5 (≈ 86.5 µM)
CN(CC(=O)Nc1cccc(C#N)c1)Cc1ccc(Cl)cc1 | 27.9 (≈ 88.9 µM)
CN(C(=O)CSc1nc2ccccc2c(=O)n1-c1ccc(F)cc1F)C1CCS(=O)(=O)C1 (centres undefined) | > 71.9
S=C1NCCNC(=S)NCCOCCOCCOCCN1 | > 50.5
Cc1ccccc1C(=O)Nc1nc(-c2cccnc2)cs1 | 3.9 (≈ 13.2 µM)
CC1C(=O)N2CCCc3cc(NS(=O)(=O)c4ccccc4)cc1c32 (centres undefined) | > 51.4
Cc1ccc(NC(=S)NCc2ccco2)c(C)c1 | > 39.1
O=C(NCc1ccccc1)C(=O)Nc1nc(-c2ccccc2)cs1 | < 0.2
CNC(=S)Nc1ccc([N+](=O)[O-])cc1 | > 31.7
O=C(Nc1ccc(F)cc1)c1cc2c(s1)CCCC2 | < 0.6
Cc1ccc(CNc2cnccn2)s1 | 30 (≈ 146 µM)
COc1ccc(Nc2nc(N3CCOCC3)nc(N3CCOCC3)n2)cc1 | 1.4 (≈ 3.76 µM)
O=c1[nH]c2ccc(S(=O)(=O)NCc3ccccc3)cc2[nH]1 | 22.5 (≈ 74.2 µM)
COc1ccc(NC(=O)C2C3C=CC(C3)C2C(=O)O)cc1 (centres undefined) | > 43.1
Cc1cc(=O)oc2cc(NC(=O)c3cc(F)ccc3F)ccc12 | 2.1 (≈ 6.66 µM)
Cc1cccc(NC(=O)CCS(=O)(=O)c2ccccc2)c1 | > 45.5
COc1cccc(CN(C)S(=O)(=O)c2cccs2)c1 | 25.1 (≈ 84.4 µM)
Cc1nc2cc3c(cc2s1)OCO3 | 13.1 (≈ 67.8 µM)

SMILES | solubility kinetic [µg/mL]
O=C(Nc1ccc2[nH]c(=O)[nH]c2c1)Nc1ccc(F)cc1F | 3.7 (≈ 12.2 µM)
O=C(CCc1ccccc1)Nc1ccc(S(=O)(=O)NC2=NCCCCC2)cc1 | 56.6 (≈ 142 µM)
CC(C)Cc1ccc(S(=O)(=O)Nc2ccc3[nH]c(=O)[nH]c3c2)cc1 | 1.1 (≈ 3.18 µM)
O=C(Nc1c[nH]c(=O)[nH]c1=O)c1ccccc1Cl | > 39.8
N/C(=N\OCC(=O)Nc1ccc(F)c(Cl)c1)c1ccccc1 | > 48.3
COc1nc(C)cc(C)c1S(=O)(=O)c1ccccc1C | 4.8 (≈ 16.5 µM)
Cc1cccc(NCc2ccc(N(C)C)cc2)n1 | 27.8 (≈ 115 µM)
Cc1cnc(C(=O)NCc2ccc(F)cc2)cn1 | > 36.8
CN(C)CCOC(=O)CCCCCCCCC(=O)OCCN(C)C.Cl | > 62.6
CNC(=O)C(NC(=O)c1ccccc1)=C(C)C | > 34.8
Cc1cc(O)ccc1NS(=O)(=O)c1ccc2c3c(cccc13)C(=O)N2 | 48.8 (≈ 138 µM)
Cc1sc2nc(SCC(=O)O)[nH]c(=O)c2c1C | > 40.5
Cn1c(C(=O)O)cc2c(=O)n3ccccc3nc21 | > 36.5
Cc1cccc(NC(=S)NCCc2ccc(F)cc2)c1C | 2.8 (≈ 9.26 µM)
CN1C(=O)/C(=C/c2ccc(OCc3ccc(F)cc3)cc2)N(C)C1=S | < 0.4
CC(C)CCC1(C)NC(=O)N(CC(=O)NCC(=O)Nc2ccc(F)c(F)c2F)C1=O (centres undefined) | > 64.3
Fc1ccccc1OCCn1c(=S)[nH]c2ccccc21 | 6 (≈ 20.8 µM)
CCc1ccc(C(=O)Nc2cccnc2Oc2ccc(Cl)cc2)cc1 | 1.5 (≈ 4.25 µM)
CC(NC(=O)CCN1C(=O)c2ccccc2C1=O)c1ccccc1 (centres undefined) | > 48.4
Cc1ccc(NC(=O)c2cc(-c3ccc(F)cc3)on2)cc1C | 0.4 (≈ 1.29 µM)
CC(=O)c1cnc(-c2cccc(Cl)c2)s1 | 1.3 (≈ 5.47 µM)
Cc1ccc(NC(=O)CNC(=O)c2ccco2)c(Cl)c1 | > 43.9

Continued, values first:

solubility kinetic [µg/mL] | SMILES
> 37.5 | CN1C(=O)CSC1=Nc1cccc(C(=O)O)c1
36.3 (≈ 89.3 µM) | O=C(NCC(=O)N1CCCC(C(F)(F)F)C1)c1ccc(Oc2ccccc2)cc1 (centres undefined)
> 47.3 | CS(=O)(=O)c1ccc(C(=O)N2CCc3ccccc3C2)cc1
< 0.3 | CCOC(=O)c1c(NC(=O)CN2CCCCC2)sc(C)c1C
> 35.9 | CCOc1ccccc1/C=C(\C#N)C1=CCCC1
4.1 (≈ 12.2 µM) | COc1ccc(C)cc1S(=O)(=O)Nc1ccc2c(c1)OCCO2
> 43.3 | CN(C)CCNC(=O)c1scc2c1CCCC2.Cl
> 45.2 | C=CCNC(=O)N1CCC(c2nc3ccccc3s2)CC1
18.1 (≈ 56.7 µM) | CCOc1cc(C=O)ccc1OCCn1c([N+](=O)[O-])cnc1C
> 36 | O=C(Cc1ccccc1Cl)N1CCOCC1
10.5 (≈ 40 µM) | CNC(=O)c1cc(C(=O)c2ccc(Cl)cc2)c[nH]1
> 50.6 | COC(=O)C1CCN(CC(=O)NC(=O)Nc2ccccc2F)CC1
> 46.5 | O=C(Cc1ccc(Cl)cc1)OCC(=O)N1CCCCCC1
10.7 (≈ 32.3 µM) | COc1cc2ncnc(NCc3cccc(F)c3F)c2cc1OC
> 51.1 | CCCc1nc2ccccc2c(C(=O)OCC(=O)NC2CC2)c1CC
> 42.1 | CC1CCN(C2(O)C(=O)Nc3ccc(Cl)cc32)CC1 (centres undefined)
5.3 (≈ 18.3 µM) | O=[N+]([O-])c1ccc(N2CCCCC2)nc1N1CCCCC1
5.2 (≈ 13.9 µM) | Cc1ccc(NC(=O)c2ccc(S(=O)(=O)N3CCOCC3)cc2)c(C)c1
11.4 (≈ 35.7 µM) | Cc1cc(C(=O)OCC(=O)NC(C)c2ccc(F)cc2)c(C)o1 (centres undefined)
> 50.3 | COc1cc(/C=C/c2[nH]c(=O)[nH]c(=O)c2[N+](=O)[O-])cc(OC)c1O
> 52 | CCCCNC(=O)N1CCN(c2ccnc3cc(Cl)ccc23)CC1
8.5 (≈ 21.9 µM) | CC(C)Oc1ccc(C(=O)Nc2cccc(S(=O)(=O)N3CCCC3)c2)cc1
3.6 (≈ 10.4 µM) | CCOC(=O)c1c(/N=C/C2=C(O)CCCC2=O)sc2c1CCCC2
> 59.3 | C[C@H](NC(=O)c1ccccc1)C(=O)N1CCN(Cc2ccc3c(c2)OCO3)CC1
> 42.8 | CCOC(=O)N1CCN(C(=O)c2c(N)no[n+]2[O-])CC1

solubility kinetic [µg/mL] | SMILES
2.8 (≈ 10.2 µM) | Cc1c(C(=O)NC2CCCCC2)oc2ccc(F)cc12
44.4 (≈ 132 µM) | O=C(c1cnsn1)N1CCC(CO)(Cc2cccc(F)c2)CC1
> 41.4 | COc1ccc(-n2ccc(=O)c(C(=O)O)n2)c(OC)c1
37.6 (≈ 138 µM) | CCOc1ccccc1Nc1ccc(C(=O)O)cc1N
> 44.9 | CC(C)CCNC(=O)c1ccc2c(c1)ncn2C1CCCC1
> 58.6 | COc1ccc(CCNC(=O)C(C)SCC(=O)Nc2ccc(F)cc2)cc1 (centres undefined)
47.7 (≈ 137 µM) | CC(Oc1ccccc1)C(=O)OCC(=O)NC(=O)NC1CCCCC1 (centres undefined)
5.8 (≈ 17.3 µM) | CCOC(=O)Cc1csc(NC(=O)Nc2cccc(OC)c2)n1
40.7 (≈ 116 µM) | CCN(CC)C(=O)COc1ccc2c(-c3ccccc3)cc(=O)oc2c1
42.2 (≈ 115 µM) | CCC(=O)N(CCC1(C(C)C)CCOC(C)(C)C1)C(C)c1cccs1 (centres undefined)
36.8 (≈ 140 µM) | O=C(NCC1CCCO1)c1cc2cc(F)ccc2[nH]1 (centres undefined)
10 (≈ 29.3 µM) | Cc1ccc2c(Cl)cc(Cl)c(OCC(=O)NC(C)(C)C)c2n1
40 (≈ 118 µM) | COc1cccc(NC(=O)CN(C)C(=O)CC(C)c2ccccc2)c1 (centres undefined)
38.3 (≈ 125 µM) | Cc1ccc2nc(SC(C)C(=O)N3CCOCC3)[nH]c2c1 (centres undefined)
> 43.7 | CCC(=O)c1ccc(OCC(=O)N2CCCC2)c(OC)c1
17.6 (≈ 51.8 µM) | CC(C)(C)C(=O)Nc1ccc(N2CCN(S(C)(=O)=O)CC2)cc1
> 46 | CC[C@H](C)[C@H](NC(N)=O)C(=O)Nc1ccc(NC(C)=O)cc1
> 35.6 | CC(C)Oc1ccc(C(=O)NCC(=O)O)cc1
18.3 (≈ 46.4 µM) | COc1cc2ccccc2cc1C(=O)NC(=S)Nc1cccc(C(=O)O)c1C
51.9 (≈ 142 µM) | CCc1ccc(S(=O)(=O)NCC(O)COc2ccc(OC)cc2)cc1 (centres undefined)
41.7 (≈ 129 µM) | Cc1ccc(CC(=O)NC2CCN(Cc3ccccc3)CC2)cc1
> 43.5 | COC(=O)CN1C(=O)N/C(=C/c2ccccc2OC)C1=O
1.6 (≈ 4.83 µM) | CCCNC(=O)COC(=O)/C(C#N)=C/c1cc(C)n(CCC)c1C
2.6 (≈ 7.96 µM) | O=[N+]([O-])c1ccc(C(O)CSC(=S)N2CCCCC2)cc1 (centres undefined)
